Data: patent publication US7811817B2, “Establishment of a human embryonic stem cell line using mammalian cells” (Reliance Life Sciences Pvt. Ltd., priority 2005, dated 2010)

Tests used:
[1] = test system: HepG2, a human hepatocarcinoma cell line; test: Exposure of HepG2 cells to carbon tetrachloride, enzyme release into supernatant (hepatotoxicity model); format: cell-based
[2] = test system: mouse ES cell-derived hepatocytes; test: In vitro hepatotoxicity model using hepatocytes differentiated from mouse ES cells, enzyme release into supernatant; format: cell-based; settings: pretreatment 24 hr, 25 μM; 0.6% CCl4 for 180 minutes
Procedure: Hepatocytes were differentiated from mouse ES cells and exposed to carbon tetrachloride (0.6%) for 180 minutes in the absence and presence of N-acetylcysteine (NAC), an antioxidant (25 μM). Levels of the following enzymes were determined by biochemical methods: Panel A: SGOT; Panel B: SGPT; Panel C: ALP; and Panel D: LDH.
Mouse ES cells were differentiated into hepatocytes by the formation of EBs in a medium without LIF. After 4 days in suspension, 15-20 EBs were plated onto 35 mm culture dishes pre-coated with 1% matrigel (BD Biosciences, USA), and allowed to differentiate for 20-25 days. Concentration of growth factors, cytokines (e.g., bone morphogenetic proteins (BMP2 and BMP4), hepatocyte growth factor (HGF), acidic-fibroblast growth factor (aFGF), and basic-FGF (bFGF)) and corticosteroids (e.g., dexamethasone) were optimized for hepatic differentiation. The differentiated cells obtained were confirmed to be hepatocytes by checking the positive expression of hepatic markers by RT-PCR and immunocytochemistry. […]
The cell supernatant was used for the determination of SGPT, SGOT, ALP, and LDH levels, per the manufacturer's protocol. […] The samples were analyzed using a Konelab-20i autoanalyser (Thermo Clinical Lab Systems, Finland). The levels were expressed as units/Liter.

Compound | time of maximum release of SGOT, SGPT, ALP and LDH ([1]; 0.6% CCl4) [min] | SGOT, SGPT, ALP and LDH levels (enzyme release, hepatocyte damage) ([1]; 0.6% CCl4, exposure 30-240 minutes, cell supernatant) | effect on CCl4-induced increase in release of SGOT, SGPT, ALP and LDH [2]
ClC(Cl)(Cl)Cl [CCl4, carbon tetrachloride] | 180 | time-dependent increases | 
CC(=O)N[C@@H](CS)C(=O)O [N-acetylcysteine] |  |  | effectively blocked the increase in the release of these enzymes
